Test results reported in PMC3256935 (Journal of Medicinal Chemistry, 2011).

Biological target: T1, TbNMT (Trypanosoma brucei brucei, UniProt Q388H8)
T1 sequence (Q388H8 1-446): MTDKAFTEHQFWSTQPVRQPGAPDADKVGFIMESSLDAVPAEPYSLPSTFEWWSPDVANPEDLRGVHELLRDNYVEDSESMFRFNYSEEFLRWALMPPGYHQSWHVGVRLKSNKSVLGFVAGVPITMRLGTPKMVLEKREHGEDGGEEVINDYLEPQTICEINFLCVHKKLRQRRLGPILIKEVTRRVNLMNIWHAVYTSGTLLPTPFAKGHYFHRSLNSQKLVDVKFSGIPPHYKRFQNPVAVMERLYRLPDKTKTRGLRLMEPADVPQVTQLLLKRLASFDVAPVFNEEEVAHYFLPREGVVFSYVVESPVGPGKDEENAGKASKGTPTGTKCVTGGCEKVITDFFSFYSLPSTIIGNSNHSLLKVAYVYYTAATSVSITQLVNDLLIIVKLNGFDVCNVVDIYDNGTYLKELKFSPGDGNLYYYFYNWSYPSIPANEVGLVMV
Experiment: biochemical

- IC50: > 100 µM
Structure (SMILES): Cc1nn(C)c(C)c1NCc1ccc(Br)cc1 [Compound 21]
